Measured values taken from ChEMBL document CHEMBL5465560, “Selectivity Literature for EUbOPEN Chemogenomic Library” (2024).

Columns and labels:
[1] = biological target: Mitogen-activated protein kinase kinase kinase 14 (Homo sapiens) (UniProt Q99558); test: Selectivity interaction (KinomeScan (DiscoverX)) EUB0000695a MAP3K14; details: at 100 nM
[2] = biological target: Phosphatidylinositol 4,5-bisphosphate 3-kinase catalytic subunit beta isoform (Homo sapiens) (UniProt P42338); test: Selectivity interaction (KinomeScan (DiscoverX)) EUB0000695a PIK3CB; details: at 100 nM
[3] = biological target: T1, Calcium/calmodulin-dependent protein kinase type IV (Homo sapiens) (UniProt Q16566); test: Selectivity interaction (Upstate Kinase Profiler service (Millipore)) EUB0000056c CAMK4; details: at 1 µM
T1 sequence (whole entry): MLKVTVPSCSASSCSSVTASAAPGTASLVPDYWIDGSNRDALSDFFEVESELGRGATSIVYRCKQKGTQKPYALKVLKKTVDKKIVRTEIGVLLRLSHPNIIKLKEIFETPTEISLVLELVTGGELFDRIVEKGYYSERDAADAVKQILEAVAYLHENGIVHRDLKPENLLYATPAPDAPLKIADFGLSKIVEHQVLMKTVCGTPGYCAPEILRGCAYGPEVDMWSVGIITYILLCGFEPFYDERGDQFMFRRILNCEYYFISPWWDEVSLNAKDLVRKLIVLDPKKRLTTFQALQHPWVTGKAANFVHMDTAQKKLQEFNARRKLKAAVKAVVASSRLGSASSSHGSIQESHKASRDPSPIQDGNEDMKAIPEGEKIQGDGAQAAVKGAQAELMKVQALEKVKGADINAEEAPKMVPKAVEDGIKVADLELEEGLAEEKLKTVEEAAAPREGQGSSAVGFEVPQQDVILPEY

[4] = biological target: T2, Muscarinic acetylcholine receptor M1 (Homo sapiens) (UniProt P11229); test: Selectivity interaction (Panel of kinases, GPCRs, ion channels and transporters (enzymatic assay)) EUB0000223bCl CHRM1
T2 sequence (whole entry): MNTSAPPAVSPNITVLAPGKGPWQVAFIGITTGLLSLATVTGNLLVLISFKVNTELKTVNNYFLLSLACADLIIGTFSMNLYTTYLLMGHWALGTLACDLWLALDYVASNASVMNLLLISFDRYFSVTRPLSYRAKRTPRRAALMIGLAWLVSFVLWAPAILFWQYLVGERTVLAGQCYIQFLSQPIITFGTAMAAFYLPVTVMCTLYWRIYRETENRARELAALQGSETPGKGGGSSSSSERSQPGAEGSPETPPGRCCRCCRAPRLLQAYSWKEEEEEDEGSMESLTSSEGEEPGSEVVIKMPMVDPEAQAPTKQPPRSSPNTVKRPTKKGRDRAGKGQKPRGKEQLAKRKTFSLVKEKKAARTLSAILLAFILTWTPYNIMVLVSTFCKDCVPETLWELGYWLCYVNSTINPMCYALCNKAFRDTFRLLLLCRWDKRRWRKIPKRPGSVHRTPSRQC

[5] = biological target: T3, Serine/threonine-protein kinase TAO2 (Homo sapiens) (UniProt Q9UL54); test: Selectivity interaction (KinomeScan (DiscoverX)) EUB0000607a TAOK2; details: at 10 µM
T3 sequence (whole entry): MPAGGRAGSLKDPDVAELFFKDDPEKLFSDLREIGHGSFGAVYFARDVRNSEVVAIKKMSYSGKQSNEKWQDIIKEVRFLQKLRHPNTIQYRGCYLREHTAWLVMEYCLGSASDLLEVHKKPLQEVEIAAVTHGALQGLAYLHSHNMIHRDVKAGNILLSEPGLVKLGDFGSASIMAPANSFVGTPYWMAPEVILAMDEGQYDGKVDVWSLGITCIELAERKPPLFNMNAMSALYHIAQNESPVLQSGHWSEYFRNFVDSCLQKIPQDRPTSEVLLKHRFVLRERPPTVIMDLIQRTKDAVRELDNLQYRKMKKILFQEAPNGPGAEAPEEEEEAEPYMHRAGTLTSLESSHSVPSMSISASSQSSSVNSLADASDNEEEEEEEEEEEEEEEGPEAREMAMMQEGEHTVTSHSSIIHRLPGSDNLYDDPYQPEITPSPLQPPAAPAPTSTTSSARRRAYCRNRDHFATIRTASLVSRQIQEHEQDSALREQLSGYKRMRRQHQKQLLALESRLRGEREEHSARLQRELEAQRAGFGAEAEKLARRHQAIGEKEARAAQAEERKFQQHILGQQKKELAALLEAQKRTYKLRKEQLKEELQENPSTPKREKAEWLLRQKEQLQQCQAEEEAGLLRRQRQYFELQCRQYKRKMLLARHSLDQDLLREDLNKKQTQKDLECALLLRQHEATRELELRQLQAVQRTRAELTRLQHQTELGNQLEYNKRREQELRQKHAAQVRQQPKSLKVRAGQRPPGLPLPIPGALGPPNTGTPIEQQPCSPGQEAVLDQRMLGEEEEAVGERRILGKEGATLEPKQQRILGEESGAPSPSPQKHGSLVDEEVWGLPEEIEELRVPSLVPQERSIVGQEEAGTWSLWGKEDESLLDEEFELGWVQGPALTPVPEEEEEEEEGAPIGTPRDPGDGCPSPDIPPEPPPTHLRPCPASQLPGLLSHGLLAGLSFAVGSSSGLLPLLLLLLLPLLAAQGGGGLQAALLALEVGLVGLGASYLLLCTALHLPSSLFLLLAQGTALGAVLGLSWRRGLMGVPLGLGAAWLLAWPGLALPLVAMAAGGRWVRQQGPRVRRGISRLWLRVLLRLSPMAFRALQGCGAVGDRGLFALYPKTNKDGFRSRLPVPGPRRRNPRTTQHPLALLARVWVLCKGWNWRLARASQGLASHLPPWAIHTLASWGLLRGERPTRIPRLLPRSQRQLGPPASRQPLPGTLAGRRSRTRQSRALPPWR

[6] = biological target: Dual specificity tyrosine-phosphorylation-regulated kinase 1A (Homo sapiens, UniProt Q13627); test: Selectivity interaction (KinomeScan (DiscoverX)) EUB0000618a DYRK1A; details: at 10 µM
[7] = biological target: Insulin-like growth factor 1 receptor (Homo sapiens, UniProt P08069); test: Selectivity interaction (Kinase panel (Invitrogen)) EUB0000639a IGF1R; details: at 200 nM
[8] = biological target: Protein-tyrosine kinase 2-beta (Homo sapiens) (UniProt Q14289); test: Selectivity interaction (ActivX KiNativ screen (kinase selectivity in THP-1 cell lysates)) EUB0000639a PTK2B; type: subcellular; details: lysate, at 0.04 µM
Protein-tyrosine kinase 2-beta (Homo sapiens), sequence (Q14289 whole entry, looked up): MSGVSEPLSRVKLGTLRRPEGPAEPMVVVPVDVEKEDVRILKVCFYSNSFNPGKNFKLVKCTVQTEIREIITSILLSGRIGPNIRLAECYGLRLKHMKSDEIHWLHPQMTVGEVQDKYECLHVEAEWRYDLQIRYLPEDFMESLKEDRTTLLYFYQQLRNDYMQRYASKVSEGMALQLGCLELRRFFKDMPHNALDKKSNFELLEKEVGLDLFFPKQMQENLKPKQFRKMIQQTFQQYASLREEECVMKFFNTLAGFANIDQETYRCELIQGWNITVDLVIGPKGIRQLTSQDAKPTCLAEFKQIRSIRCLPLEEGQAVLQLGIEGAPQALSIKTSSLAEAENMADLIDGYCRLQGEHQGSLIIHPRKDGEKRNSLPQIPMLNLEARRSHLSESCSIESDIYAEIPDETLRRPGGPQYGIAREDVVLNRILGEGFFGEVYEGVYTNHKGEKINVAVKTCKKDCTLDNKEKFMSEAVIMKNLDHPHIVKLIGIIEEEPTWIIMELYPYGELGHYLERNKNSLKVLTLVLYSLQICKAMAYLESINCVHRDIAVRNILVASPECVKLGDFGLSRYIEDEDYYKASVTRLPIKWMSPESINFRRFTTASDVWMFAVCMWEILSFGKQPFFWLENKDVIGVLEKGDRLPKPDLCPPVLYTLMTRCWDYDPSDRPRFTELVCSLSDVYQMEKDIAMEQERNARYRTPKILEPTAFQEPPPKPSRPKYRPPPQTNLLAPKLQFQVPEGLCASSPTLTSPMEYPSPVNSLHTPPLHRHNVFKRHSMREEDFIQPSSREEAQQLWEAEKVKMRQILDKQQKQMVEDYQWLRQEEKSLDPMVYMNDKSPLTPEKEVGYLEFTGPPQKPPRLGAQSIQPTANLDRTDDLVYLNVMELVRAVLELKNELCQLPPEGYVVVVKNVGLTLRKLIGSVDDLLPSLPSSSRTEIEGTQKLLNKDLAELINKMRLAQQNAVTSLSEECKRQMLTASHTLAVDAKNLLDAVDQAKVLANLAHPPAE

Insulin-like growth factor 1 receptor, sequence (P08069 31-736 limits assumed): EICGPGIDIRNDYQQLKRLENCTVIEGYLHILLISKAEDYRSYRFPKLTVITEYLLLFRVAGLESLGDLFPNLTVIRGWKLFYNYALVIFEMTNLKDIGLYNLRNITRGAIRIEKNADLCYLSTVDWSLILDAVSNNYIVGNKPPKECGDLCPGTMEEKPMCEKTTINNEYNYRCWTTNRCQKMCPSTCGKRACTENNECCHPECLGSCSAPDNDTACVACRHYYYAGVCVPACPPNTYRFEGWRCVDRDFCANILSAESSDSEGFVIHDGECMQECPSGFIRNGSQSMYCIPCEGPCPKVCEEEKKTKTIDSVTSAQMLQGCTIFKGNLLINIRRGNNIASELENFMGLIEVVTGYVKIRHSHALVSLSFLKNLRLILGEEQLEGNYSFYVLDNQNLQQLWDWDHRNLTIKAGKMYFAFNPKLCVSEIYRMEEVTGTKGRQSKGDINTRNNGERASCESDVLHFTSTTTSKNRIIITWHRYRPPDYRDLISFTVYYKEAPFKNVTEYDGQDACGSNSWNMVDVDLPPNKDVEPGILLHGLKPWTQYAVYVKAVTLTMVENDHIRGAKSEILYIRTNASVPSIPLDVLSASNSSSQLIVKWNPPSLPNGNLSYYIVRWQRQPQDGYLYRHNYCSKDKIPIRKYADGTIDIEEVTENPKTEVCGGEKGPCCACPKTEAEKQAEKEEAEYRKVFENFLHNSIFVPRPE
Insulin-like growth factor 1 receptor, sequence (P08069 741-1367 limits assumed): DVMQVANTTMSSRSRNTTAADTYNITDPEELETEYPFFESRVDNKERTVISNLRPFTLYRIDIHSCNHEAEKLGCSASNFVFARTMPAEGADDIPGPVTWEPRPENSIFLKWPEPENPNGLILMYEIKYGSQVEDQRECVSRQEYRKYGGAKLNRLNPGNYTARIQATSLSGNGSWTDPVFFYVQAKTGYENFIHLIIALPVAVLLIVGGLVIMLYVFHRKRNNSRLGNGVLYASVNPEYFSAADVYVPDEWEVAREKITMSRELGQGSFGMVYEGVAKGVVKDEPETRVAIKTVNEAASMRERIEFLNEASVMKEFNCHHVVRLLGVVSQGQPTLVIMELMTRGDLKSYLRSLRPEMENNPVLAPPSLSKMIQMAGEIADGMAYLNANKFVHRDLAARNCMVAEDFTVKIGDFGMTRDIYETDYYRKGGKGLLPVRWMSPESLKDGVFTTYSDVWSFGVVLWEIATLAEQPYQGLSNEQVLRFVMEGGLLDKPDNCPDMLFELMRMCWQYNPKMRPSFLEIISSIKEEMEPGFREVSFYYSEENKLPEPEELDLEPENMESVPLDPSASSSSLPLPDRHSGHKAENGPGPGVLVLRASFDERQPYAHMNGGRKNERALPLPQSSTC
Phosphatidylinositol 4,5-bisphosphate 3-kinase catalytic subunit beta isoform (Homo sapiens), sequence (P42338 whole entry, looked up, canonical isoform): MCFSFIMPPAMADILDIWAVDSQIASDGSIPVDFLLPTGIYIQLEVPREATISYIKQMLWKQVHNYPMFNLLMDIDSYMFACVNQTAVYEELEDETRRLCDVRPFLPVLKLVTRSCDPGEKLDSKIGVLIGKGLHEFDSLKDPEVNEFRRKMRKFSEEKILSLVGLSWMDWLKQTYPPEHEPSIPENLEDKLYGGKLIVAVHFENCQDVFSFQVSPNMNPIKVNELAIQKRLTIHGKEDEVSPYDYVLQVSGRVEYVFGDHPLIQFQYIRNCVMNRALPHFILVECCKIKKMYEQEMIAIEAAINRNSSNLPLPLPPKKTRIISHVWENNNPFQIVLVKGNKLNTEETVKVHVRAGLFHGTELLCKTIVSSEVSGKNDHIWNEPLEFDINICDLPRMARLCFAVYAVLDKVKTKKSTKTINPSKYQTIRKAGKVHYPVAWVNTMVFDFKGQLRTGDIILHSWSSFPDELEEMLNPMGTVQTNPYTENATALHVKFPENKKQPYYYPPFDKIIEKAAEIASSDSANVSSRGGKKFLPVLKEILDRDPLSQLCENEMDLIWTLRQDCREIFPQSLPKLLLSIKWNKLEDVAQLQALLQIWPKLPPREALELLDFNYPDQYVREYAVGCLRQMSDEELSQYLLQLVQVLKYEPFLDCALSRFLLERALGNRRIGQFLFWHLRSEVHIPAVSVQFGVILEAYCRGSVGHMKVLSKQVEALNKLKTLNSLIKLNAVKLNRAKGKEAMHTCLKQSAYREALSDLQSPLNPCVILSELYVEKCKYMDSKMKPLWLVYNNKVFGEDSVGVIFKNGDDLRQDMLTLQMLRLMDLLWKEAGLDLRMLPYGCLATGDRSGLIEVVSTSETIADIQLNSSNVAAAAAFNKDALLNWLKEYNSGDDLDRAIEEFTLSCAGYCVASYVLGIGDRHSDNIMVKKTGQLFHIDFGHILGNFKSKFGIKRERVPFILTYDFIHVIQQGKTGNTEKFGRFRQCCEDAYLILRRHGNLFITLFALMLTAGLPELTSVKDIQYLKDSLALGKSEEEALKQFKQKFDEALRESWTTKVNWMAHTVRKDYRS
Mitogen-activated protein kinase kinase kinase 14 (Homo sapiens), sequence (Q99558 whole entry, looked up, canonical isoform): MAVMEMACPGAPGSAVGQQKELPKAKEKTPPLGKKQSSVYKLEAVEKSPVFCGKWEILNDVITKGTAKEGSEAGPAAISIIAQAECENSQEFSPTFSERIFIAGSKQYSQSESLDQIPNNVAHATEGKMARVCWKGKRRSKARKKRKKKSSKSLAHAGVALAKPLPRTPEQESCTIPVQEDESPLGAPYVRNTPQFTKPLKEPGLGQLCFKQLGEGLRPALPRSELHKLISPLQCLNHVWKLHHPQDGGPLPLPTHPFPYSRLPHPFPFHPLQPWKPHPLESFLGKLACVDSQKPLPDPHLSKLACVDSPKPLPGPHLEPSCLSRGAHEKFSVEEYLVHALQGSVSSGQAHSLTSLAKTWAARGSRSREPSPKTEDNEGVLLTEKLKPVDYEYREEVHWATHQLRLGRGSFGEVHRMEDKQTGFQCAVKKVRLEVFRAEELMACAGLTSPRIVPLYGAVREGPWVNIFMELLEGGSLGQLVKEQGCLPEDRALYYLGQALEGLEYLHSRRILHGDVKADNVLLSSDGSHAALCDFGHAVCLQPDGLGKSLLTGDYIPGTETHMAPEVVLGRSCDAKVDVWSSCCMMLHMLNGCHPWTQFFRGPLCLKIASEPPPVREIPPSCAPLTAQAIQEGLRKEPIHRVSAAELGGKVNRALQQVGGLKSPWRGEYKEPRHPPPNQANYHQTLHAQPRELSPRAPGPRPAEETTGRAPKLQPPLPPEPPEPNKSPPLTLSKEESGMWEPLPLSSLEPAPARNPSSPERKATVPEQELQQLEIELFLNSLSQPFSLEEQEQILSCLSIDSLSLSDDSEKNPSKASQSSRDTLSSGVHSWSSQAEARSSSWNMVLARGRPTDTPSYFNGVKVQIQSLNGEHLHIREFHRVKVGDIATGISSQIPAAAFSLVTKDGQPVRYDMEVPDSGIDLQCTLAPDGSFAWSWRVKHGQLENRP

Cc1cc(F)c(C(=O)Nc2cccc(-c3nncn3C(C)C)n2)cc1-n1cnc(C2CC2)c1
% of control [1]: 36% | % of control [2]: 100%

Cc1ccc(-c2ccc3c(ccc4sc5c(c43)NC[C@@H](C)NC5=O)n2)cn1
% of inhibition [3]: 15%

COc1cc(C(=O)N2CC[C@@H](O)[C@@H](N)C2)cc2nc(-c3cc4ccccc4n3CC3CC3)n(C)c12
pXC50 [4]: 4.9 M

CNC(=O)Nc1ccc(-c2nc(N3CC4CCC(C3)O4)c3cnn(C4CCC5(CC4)OCCO5)c3n2)cc1
% of control [5]: 100%

O[C@H]1CC[C@H](Nc2ncc3nc(Nc4c(F)cc(F)cc4F)n([C@H]4CCOC4)c3n2)CC1
% of control [6]: 98%

CC[C@@H]1[C@H](F)C(=O)N[C@@H]1COc1nccc2cc(C(N)=O)c(OC)cc12 [ZIMLOVISERTIB]
% of inhibition [7]: 7.84% | % of inhibition [8]: 6.6%
